Results reported in ChEMBL document CHEMBL5385851, “Natural quinazolinones: From a treasure house to promising anticancer leads” (Eur J Med Chem, 2023).
≈ marks a conversion by molar mass, not a printed value. Blank lines part the entries; values can stand above or below the molecule they belong to.

Key:
[1] = test system: A549; experiment: Cytotoxicity against human A549 cells assessed as reduction in cell viability incubated for 72 hrs by MTT assay; type: functional, cell-based; conditions: A549, 72 h
[2] = test system: Hs-578T; experiment: Cytotoxicity against human Hs-578T cells assessed as cell growth inhibition; type: functional, cell-based
[3] = test system: NCI-H460; experiment: Cytotoxicity against human NCI-H460 cells assessed as cell growth inhibition; type: functional
[4] = test system: U-251; experiment: Growth inhibition of human U-251 cells incubated for 48 hrs by SRB assay; type: functional
[5] = test system: ACHN; experiment: Growth inhibition of human ACHN cells incubated for 48 hrs by SRB assay; type: functional
[6] = test system: MGC-803; experiment: Antiproliferative activity against human MGC-803 cells assessed as reduction in cell viability by MTT assay; type: functional, cell-based
[7] = test system: 786-0; experiment: Cytotoxicity against human 786-0 cells assessed as cell growth inhibition; type: functional
[8] = test system: A549; experiment: Cytotoxicity against human A549 cells assessed as cell growth inhibition; type: functional
[9] = test system: MGC-803; experiment: Cytotoxicity against human MGC-803 assessed as inhibition of cell growth by MTT assay; type: functional, cell-based
[10] = test system: U-251; experiment: Cytotoxicity against human U-251 cells assessed as cell growth inhibition; type: functional
[11] = test system: DU-145; experiment: Cytotoxicity against human DU-145 cells assessed as cell growth inhibition; type: functional
[12] = test system: MCF7; experiment: Cytotoxicity against human MCF7 cells assessed as reduction in cell growth; type: functional, cell-based
[13] = test system: NCI-H460; experiment: Cytotoxicity against human NCI-H460 cells assessed reduction in cell viability; type: functional, cell-based
[14] = test system: SF-268; experiment: Antiproliferative activity against human SF-268 cells assessed as reduction in cell growth incubated for 48 hrs by SRB assay; type: functional, cell-based; conditions: SF-268, 48 h
[15] = test system: ACHN; experiment: Growth inhibition of human ACHN cells; type: functional
[16] = test system: L1210; experiment: Antiproliferative activity against mouse L1210 cells assessed as cell growth inhibition measured after 72 hrs by MTT assay; type: functional, cell-based; conditions: L1210, 72 h
[17] = test system: HL-60; experiment: Cytotoxicity against human HL-60 cells assessed as cell growth inhibition by MTT assay; type: functional

SMILES: O=c1c2ccccc2nc2n1C(O)c1cc3ccccc3nc1-2 (configuration not stated)
IC50 [1]: 9 µg/mL (≈ 29.9 µM)

SMILES: COC1c2cc3ccccc3nc2-c2nc3ccccc3c(=O)n21 (configuration not stated)
IC50 [2]: 9 µg/mL (≈ 28.5 µM)

SMILES: O=c1c2ccccc2nc2n1CCc1c-2[nH]c2ccc(Br)cc12
GI50 [3]: 1550 nM

GI50 [4]: 300 nM
GI50 [5]: 400 nM
SMILES: CN1c2ccccc2C(=O)N2CCc3c([nH]c4ccc(Br)cc34)C21 (configuration not stated)

IC50 [6]: 94500 nM
SMILES: O=c1c2ccccc2nc2n1CC[C@@H]2O

SMILES: COc1ccc2c3c([nH]c2c1)-c1nc2ccccc2c(=O)n1CC3
GI50 [7]: 310 nM
GI50 [8]: 750 nM

SMILES: O=c1c2ccccc2nc2n1CC[C@@H]2O[C@@H]1O[C@H](CO)[C@@H](O)[C@H](O)[C@H]1O
IC50 [9]: 84100 nM

SMILES: O=C1c2ccccc2NC2c3[nH]c4ccccc4c3CCN12 (configuration not stated)
GI50 [10]: 20 nM
GI50 [11]: 200 nM

SMILES: CC(=O)C[C@]1(O)c2ccccc2-n2c1nc1ccccc1c2=O
IC50 [12]: 33800 nM
IC50 [13]: 27000 nM
IC50 [14]: 43900 nM

GI50 [15]: 80 nM
SMILES: CSc1ccc2[nH]c3c(c2c1)CCN1C(=O)c2ccccc2NC31 (configuration not stated)

IC50 [16]: 130 nM
SMILES: O=c1c2ccccc2nc2n1Cc1cc3cccnc3nc1-2

SMILES: O=c1c2ccccc2nc2n1CCc1c-2[nH]c2c(Cl)c(Cl)ccc12
GI50 [17]: 150 nM
